pIC50: −log10 of the molar value.
target: RAC-alpha serine/threonine-protein kinase (Homo sapiens, UniProt P31749); assay: AKT1 kinase inhibition by PKD hits, dose response, selectivity assay for PKD inhibitor project, biochemical, 57K library, IC50 (AID 1378)
Sequence (P31749 whole entry): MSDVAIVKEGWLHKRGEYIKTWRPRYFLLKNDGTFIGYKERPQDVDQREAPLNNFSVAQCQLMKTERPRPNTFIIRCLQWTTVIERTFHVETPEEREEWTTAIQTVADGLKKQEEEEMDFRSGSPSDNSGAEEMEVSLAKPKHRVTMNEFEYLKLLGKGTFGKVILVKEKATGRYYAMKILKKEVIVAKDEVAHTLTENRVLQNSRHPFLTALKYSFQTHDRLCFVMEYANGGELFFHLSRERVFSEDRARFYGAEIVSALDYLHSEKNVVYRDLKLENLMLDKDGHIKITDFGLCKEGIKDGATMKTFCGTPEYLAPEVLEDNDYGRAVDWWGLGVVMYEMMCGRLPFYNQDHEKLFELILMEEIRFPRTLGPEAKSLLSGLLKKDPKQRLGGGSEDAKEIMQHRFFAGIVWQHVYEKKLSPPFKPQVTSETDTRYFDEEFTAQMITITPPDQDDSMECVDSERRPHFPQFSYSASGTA

pIC50, < 4.00:
CSc1ccccc1C(=O)NCc1ccc(F)cc1
CCCc1cc(=O)[nH]c(SCCCCN2C(=O)c3ccccc3C2=O)n1 [2-[4-[(4-oxidanylidene-6-propyl-1H-pyrimidin-2-yl)sulfanyl]butyl]isoindole-1,3-dione]
COc1ccc(Cn2c(=O)[nH]c3cc(C(=O)NC4CCCC4)ccc3c2=O)cc1 [MLS000730065]
CCOC(=O)c1sc(=NC(=O)CCS(=O)(=O)c2ccccc2)n(C)c1C [2-[3-(benzenesulfonyl)-1-oxopropyl]imino-3,4-dimethyl-5-thiazolecarboxylic acid ethyl ester]
CC(N=Nc1ncc(Cl)cc1Cl)c1ccccn1 (stereo not drawn) [3,5-dichloro-N-(1-pyridin-2-ylethylideneamino)pyridin-2-amine]
O=C1CSCN1c1cc(Cl)ccc1Cl [3-(2,5-dichlorophenyl)-1,3-thiazolan-4-one]
Cc1c(C#N)c(N)nc(Cl)c1C#N [2-amino-6-chloro-4-methyl-3,5-pyridinedicarbonitrile]
Cn1cccc1C(=O)NC(=O)COC(=O)c1cc(S(=O)(=O)N2CCCCC2)ccc1Cl [[2-[(1-methylpyrrol-2-yl)carbonylamino]-2-oxidanylidene-ethyl] 2-chloranyl-5-piperidin-1-ylsulfonyl-benzoate]
O=C(CSc1ccc2nnc(-c3cccnc3)n2n1)c1ccccc1 [1-phenyl-2-[[3-(3-pyridinyl)-[1,2,4]triazolo[4,3-b]pyridazin-6-yl]thio]ethanone]
O=C(Nc1ccccc1C(=O)N1CCCC1)C1COc2ccccc2O1 (stereo not drawn) [SMR000287780]
CC1Cc2ccccc2N1c1ncnc(N)c1[N+](=O)[O-] (stereo not drawn) [6-(2-methyl-2,3-dihydro-1H-indol-1-yl)-5-nitro-4-pyrimidinamine]
O=[N+]([O-])c1ccc(Nc2c3ccccc3nc3ccccc23)cc1 [MLS000723809]
COc1ccc(CNC(=O)C2Cc3ccccc3CN2C(=O)c2ccco2)cc1 (stereo not drawn) [SMR000343177]
Cc1cc(NC(=O)CCC(=O)N(Cc2ccco2)C(C(=O)NCC2CCCO2)c2ccncc2)no1 (stereo not drawn) [N'-(furan-2-ylmethyl)-N-(5-methyl-1,2-oxazol-3-yl)-N'-[2-oxidanylidene-2-(oxolan-2-ylmethylamino)-1-pyridin-4-yl-ethyl]butanediamide]
O=C(CSc1ccncc1)Nc1ccc2ccccc2c1 [N-naphthalen-2-yl-2-pyridin-4-ylsulfanylacetamide]
COC(=O)c1c(NC(=O)C2C3CCC(C3)C2C(=O)O)sc2c1CCCCC2 (stereo not drawn) [SMR000298221]
O=C(O)c1cc(C(=O)C2CCCCC2)c[nH]1 [4-(cyclohexylcarbonyl)-1H-pyrrole-2-carboxylic acid]
O=C(NNC1=Nc2cccc3cccc1c23)c1ccc(Br)cc1 [SMR000260645]

— BindingDB's records for doi:10.7270/Q2JM282R (University of Pittsburgh, 2008)
